The source of these data is US20090105124A1, “HETEROCYCLIC MODULATORS OF TGR5” (Kalypsys, Inc., priority 2007, published 2009).

The target of this test is T1, human TGR5 (Homo sapiens, UniProt Q8TDU6).
T1 construct: expressed in transfected cells
T1 sequence (Q8TDU6 1-330): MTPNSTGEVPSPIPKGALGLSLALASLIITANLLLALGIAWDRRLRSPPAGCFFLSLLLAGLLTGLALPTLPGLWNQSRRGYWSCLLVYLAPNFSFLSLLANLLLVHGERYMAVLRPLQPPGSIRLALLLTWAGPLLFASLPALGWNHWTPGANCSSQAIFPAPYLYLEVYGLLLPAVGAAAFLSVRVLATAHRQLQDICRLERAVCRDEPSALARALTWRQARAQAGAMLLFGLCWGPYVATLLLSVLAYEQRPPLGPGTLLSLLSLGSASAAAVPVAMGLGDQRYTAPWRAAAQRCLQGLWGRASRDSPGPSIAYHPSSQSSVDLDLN
Kind of test: cAMP production assay in HEK293 cells stably expressing TGR5 (LANCE cAMP, TR-FRET). In kind it is cell-based. The note with it: stimulated with test compounds for 30 minutes, 1 mM IBMX, read-out: cAMP Production in 293-TGR5 Cells. How it is done: HEK293 cells stably expressing TGR5 (HEK293-TGR5) were established by stably transfecting HEK-293 cells with an expression vector (pcDNA 3.1, Invetrogen) inserted with human TGR5 cDNA using Fugene6 (Roche, Indianapolis, Ind.) according to conventional methods. Cells were grown in DMEM (invitrogen, Carlsbad, Calif.) supplemented with 10% FBS, 1% penicillin/streptomycin under geneticin selection. The presence of TGR5 transcripts in these cells was confirmed using branched DNA (bDNA, Genospectra, Inc., Fremont Calif.) following the manufacturer's protocol and using specific probes for human TGR5. cAMP production assay was performed in high throughput 1536 well format using LANCE cAMP detection kit (Perkin Elmer Inc., Boston, Mass.) according to the manufacturer's protocol. Briefly, HEK293-TGR5 cells were harvested using non-enzymatic cell dissociation buffer (Invitrogen, Carlsbad, Calif.) and suspended in DMEM supplemented with 0.1% FBS at a density of 800,000 cells/ml. Alexa antibody was added to the cell suspension, and 4 ul of the mixture was dispensed in white opaque tissue culture treated Greiner 1536 well plates (USA Scientific, Inc., Ocala, Fla.). After an overnight incubation at 37 C in an atmosphere of 10% CO2 and 95% humidity, 1 ul of 5 mM IBMX (Sigma, St. Louis, Mo.) solution in DMEM was dispensed for a final concentration of 1 mM. Cells were then stimulated with test compounds for 30 minutes, after which time 5 ul of detection reagent was added and incubated for 1-7 hrs at room temperature. TR-FRET signal was detected using the Viewlux (Perkin Elmer Inc., Boston Mass.). EC50 values were determined using Graph Pad Prizm analysis (GraphPad Software, Inc). The EC50 values for a wide range of bile acids generated from this assay were in agreement with the values published in the scientific literature. […] The symbol (+) denotes an EC50 value of ≦10 μM while the symbol (−) denotes an EC50 value of >10 μM (see Table 1).
(cAMP levels reflect the balance of adenylyl cyclase and phosphodiesterase activity.)
Take `COc1cncc(-c2nc3ncccc3c(=O)n2NCc2ccc(Cl)cc2)c1` [Example 9, 3-{[(4-Chlorophenyl)methyl]amino}-2-(5-methoxypyridin-3-yl)-3H,4H-pyrido[2,3-d]pyrimidin-4-one]: the EC50 was at most 10 µM.

With `O=c1c2cccnc2nc(-c2cncc(Cl)c2)n1NCc1ccc(Cl)cc1F` [Example 1, 3-{[(4-Chloro-2-fluorophenyl)methyl]amino}-2-(5-chloropyridin-3-yl)-3H,4H-pyrido[2,3-d]pyrimidin-4-one], the EC50 is at most 10 µM.

For `Cc1cc(-c2nc3cnccc3c(=O)n2NCc2ccc(Cl)cc2)ccc1O` [Example 21, 3-{[(4-Chlorophenyl)methyl]amino}-2-(4-hydroxy-3-methylphenyl)-3H,4H-pyrido[3,4-d]pyrimidin-4-one], the EC50 was at most 10 µM.

As for `COc1ccc(-c2nc3ncccc3c(=O)n2NCc2ccc(Br)cc2)cc1` [Example 5, 3-{[(4-Bromophenyl)methyl]amino}-2-(4-methoxyphenyl)-3H,4H-pyrido[2,3-d]pyrimidin-4-one], the EC50 was at most 10 µM.

As for `O=c1c2cccnc2nc(-c2cncc(Cl)c2)n1NCc1ccc(Cl)cc1` [Example 8, 3-{[(4-Chlorophenyl)methyl]amino}-2-(5-chloropyridin-3-yl)-3H,4H-pyrido[2,3-d]pyrimidin-4-one], the EC50 is at most 10 µM.

On to `O=c1c2nccnc2nc(-c2ccc(F)cc2)n1/N=C/c1ccc(Br)cc1` [Example 50, 3-[(E)-[(4-Bromophenyl)methylidene]amino]-2-(4-fluorophenyl)-3,4-dihydropteridin-4-one], for which the EC50 was over 10 µM.

Turning to `O=c1c2nccnc2nc(-c2ccc(F)cc2)n1NCc1ccc(Cl)c(F)c1` [Example 45, 3-{[(4-Chloro-3-fluorophenyl)methyl]amino}-2-(4-fluorophenyl)-3,4-dihydropteridin-4-one], the EC50 is at most 10 µM.

With `O=c1c2ccsc2nc(-c2ccc(F)cc2)n1NCc1ccc(Cl)cc1` [Example 32, 3-{[(4-Chlorophenyl)methyl]amino}-2-(4-fluorophenyl)-3H,4H-thieno[2,3-d]pyrimidin-4-one], the EC50 was at most 10 µM.

Take `O=c1c2ccsc2nc(-c2ccc(O)cc2)n1NCc1ccc(Br)cc1` [Example 26, 3-{[(4-Bromophenyl)methyl]amino}-2-(4-hydroxyphenyl)-3H,4H-thieno[2,3-d]pyrimidin-4-one]: the EC50 is at most 10 µM.

In the case of `O=c1c2ncccc2nc(-c2ccc(F)cc2)n1NCc1ccc(Br)cc1` [Example 25, 3-{[(4-Bromophenyl)methyl]amino}-2-(4-fluorophenyl)-3H,4H-pyrido[3,2-d]pyrimidin-4-one], the EC50 was at most 10 µM.

For the molecule `O=c1c2sccc2nc(-c2ccc(F)cc2)n1NCc1ccc(Br)cc1` [Example 35, 3-{[(4-Bromophenyl)methyl]amino}-2-(4-fluorophenyl)-3H,4H-thieno[3,2-d]pyrimidin-4-one], the EC50 was at most 10 µM.

Take `Cn1cnc2nc(-c3ccc(F)cc3)n(NCc3ccc(Cl)cc3)c(=O)c21` [Example 39, 1-{[(4-Chlorophenyl)methyl]amino}-2-(4-fluorophenyl)-7-methyl-6,7-dihydro-1H-purin-6-one]: the EC50 was at most 10 µM.

For `Cn1ncc2nc(-c3ccc(F)cc3)n(NCc3ccc(F)c(F)c3)c(=O)c21` [Example 42, 6-{[(3,4-Difluorophenyl)methyl]amino}-5-(4-fluorophenyl)-1-methyl-1H,6H,7H-pyrazolo[4,3-d]pyrimidin-7-one], the EC50 is over 10 µM.

For the molecule `O=c1c2cnccc2nc(-c2ccc(F)cc2)n1NCc1ccc(Cl)cc1` [Example 23, 3-{[(4-Chlorophenyl)methyl]amino}-2-(4-fluorophenyl)-3H,4H-pyrido[4,3-d]pyrimidin-4-one], the EC50 is at most 10 µM.

`O=c1c2nccnc2nc(-c2cncc(Cl)c2)n1NCc1ccc(Cl)cc1` [Example 49, 3-{[(4-Chlorophenyl)methyl]amino}-2-(5-chloropyridin-3-yl)-3,4-dihydropteridin-4-one]: the EC50 is at most 10 µM.
